Where two headings read alike, the source gives them in different places.
Assays:
[1] = test system: mouse embryonic fibroblast NIH/3 T3 cells; assay: MTT cytotoxicity assay, NIH/3T3; type: cell-based; conditions: 3T3, 72 h
Description: (§1) The cytotoxic effects of the compounds were evaluated by the MTT [3-(4,5-dimethylthiazol-2-yl)-2,5-diphenyltetrazolium bromide] assay. The cells (50,000 cells/mL) were treated with various concentrations of the compounds (0.94–30 μM) in a 96-well plate for 72 h. Untreated controls were also included. Following incubation, 20 μL of 5 mg/mL MTT solution was added to each well and incubated at 37 °C for 3 h. Next, 100 μL of DMSO was added to dissolve the purple precipitate of formazan crystal. The absorbance at 570 nm and 630 nm as reference wavelength was measured by a microplate reader (BioTek EL 800, United States).
(§2) Cell growth inhibition (%) = [1 - (ODTreated/OD Control)] × 100.

[2] = test system: A-549 cells; assay: MTT cytotoxicity assay, A-549; type: cell-based, human; conditions: A-549, 72 h
Description: as §1, §2

[3] = test system: HeLa cells; assay: MTT cytotoxicity assay, HeLa; type: cell-based, human; conditions: 72 h
Description: as §1, §2

[4] = test system: MCF-7 cells; assay: MTT cytotoxicity assay, MCF-7; type: cell-based, human
Description: as §1, §2

[5] = test system: MDA-MB-231 cells; assay: MTT cytotoxicity assay, MDA-MB-231; type: cell-based, human; conditions: for IC50: MTT
Description: as §1, with “The cells (50,000 cells/mL) were treated with various concentrations of the compounds (0.94–30 μM) in a 96-well plate for 72 h.” left out
as §2

[6] = test system: HT-29 cells; assay: MTT cytotoxicity assay, HT-29; type: cell-based, human; conditions: HT-29, 72 h
Description: as §1, §2

[7] = test system: MCF-10A normal breast epithelial cells; assay: MTT cytotoxicity assay, MCF10A; type: cell-based, human; conditions: 72 h
Description: as §1, §2

[8] = test system: MDA-MB-231 cells; assay: Morphological changes under inverted light microscope; type: cell-based, human
Description: Briefly, 150,000 cells per well of MDA-MB-231 cells were seeded in a 6-well plate and incubated for 24 h. Next, the cells were treated with ampelopsin E (7.5–30 μM) and further incubated for 72 h. The untreated cells were included as a control. The image was captured at 0, 24, 48 and 72 h at the same spot under an inverted microscope (Olympus, Japan).

[9] = test system: MCF-7 cells; parameters: method as in Wibowo et al. [34]; conditions: MCF-7, ampelopsin E from Dryobalanops beccarii; ref Wibowo et al. [34]; cited from earlier work
[10] = test system: MDA-MB-231 cells; assay: Annexin V/PI flow cytometric analysis of mode of cell death; type: cell-based, human; conditions: for percentage of viable cells, lower left quadrant (Annexin-V-/PI-): 24 h; for percentage of early apoptotic cells, lower right quadrant (Annexin-V+/PI-): 72 h
Description: Human Annexin V/PI Apoptosis Detection Kit I (BD Biosciences Pharmingen, Franklin Lakes, NJ, USA) was used to determine the mode of cell death induced by ampelopsin E. Briefly, the MDA-MB-231 cells were seeded at 150,000 cells per well in a 6-well plate. Next, the cells were treated with ampelopsin E (7.5–30 μM). The untreated cells were also included as a control. The cells were harvested and washed with 2 mL of ice-cold PBS. Subsequently, the samples were mixed with 100 μL of […] binding buffer on ice. Next, in the dark, 5 μL annexin V and 5 μL of propidium iodide (1 mg/mL) were added with 15 min of incubation on ice. Next, 400 μL of […] binding buffer was added to dilute the samples. The cells were analyzed by using FACS Calibur flow cytometer (Becton Dickinson, USA). The results were analysed by using FlowJo version 8.6 (Treestar Inc., San Carlos, CA).

[11] = test system: MDA-MB-231 cells; assay: Cell cycle analysis by flow cytometer; type: cell-based, human; conditions: 15 and 30 μM; 24, 48 and 72 h; p < 0.05
Description: MDA-MB-231 cells were seeded at 800,000 cells per 75 cm^2 flask. Next, the cells were treated with ampelopsin E (7.5–30 μM). The untreated cells were also included as a control. The cells were incubated for 24, 48 and 72 h. Next, the cells were trypsinized, washed twice with ice cold PBS and collected. The cell pellet was fixed with ice-cold 70 % ethanol and stored at −20 °C. After a week, the cells were washed once again with ice-cold PBS. The cell pellet was mixed up with 250 μL Guava cell cycle reagents (EMD, Milliport Corporation, Hayward) and 300 μL PBS. The population of cells in each phase was measured by a flow cytometer (FACSCalibur, Becton Dickinson, USA). The results were analysed by using ModFit LT™ software.

Compound	IC50 [1] [µM]	IC50 [2] [µM]	IC50 [3] [µM]	IC50 ([4]; MCF-7, 72 h) [µM]	IC50 ([5]; MDA-MB-231, 72 h) [µM]	IC50 [6] [µM]	IC50 [7] [µM]	other results
Oc1ccc([C@@H]2c3c(O)cc(O)cc3[C@@H]3c4c(O)cc(O)cc4[C@H]2[C@H]3c2ccc(O)cc2)cc1 [Ampelopsin F, ampelopsin F]	> 30	> 30	> 30	> 30	> 30	> 30	–	–
COc1cccc2c1C(=O)c1c(O)c3c(c(O)c1C2=O)C[C@@](O)(C(=O)CO)C[C@@H]3O[C@H]1C[C@H](N)[C@H](O)[C@H](C)O1 [Doxorubicin, reference compound]	–	–	–	–	–	–	–	IC50 ([4]; Homo sapiens, MCF7, MCF-7, 72 h): 0.21 ± 0.27 µM; IC50 ([7]; Homo sapiens, MCF-10A): > 10 µM; IC50 ([5]; Homo sapiens, MDA-MB-231, 72 h): 0.4 µM
Oc1ccc(/C=C/c2c3c(cc4c2[C@@H](c2cc(O)cc(O)c2)[C@H](c2ccc(O)cc2)O4)O[C@H](c2ccc(O)cc2)[C@H]3c2cc(O)cc3c2[C@@H](c2cc(O)cc(O)c2)[C@H](c2ccc(O)cc2)O3)cc1 [Flexuosol A, flexuosol A]	> 30	> 30	> 30	> 30	27.5 ± 3.54	> 30	> 30	–
O=C1O[C@@H]2[C@H](O)COC23O[C@@H](c2ccc(O)cc2)[C@H](c2cc(O)cc4c2[C@@H](c2cc(O)cc(O)c2)[C@H](c2ccc(O)cc2)O4)[C@@]13O (stereo partly drawn) [Laevifonol, laevifonol]	> 30	> 30	> 30	> 30	> 30	> 30	–	–
Oc1ccc(/C=C\c2c3c(cc4c2[C@@H](c2cc(O)cc(O)c2)[C@@H](c2ccc(O)cc2)O4)O[C@H](c2ccc(O)cc2)[C@@H]3c2cc(O)cc(O)c2)cc1 [Malaysianol D]	–	–	–	> 30	> 30	–	> 30	–
Malaysianol A	–	–	–	> 30	23 ± 4.24	–	> 30	–
ampelopsin E	> 30	> 30	> 30	29.5 ± 0.71	14.5 ± 0.71	> 30	> 30	morphological changes ([8]; 7.5 μM): membrane blebbing; morphological changes ([8]; 15 μM): cell shrinkage; morphological changes ([8]; 30 μM, 48 and 72 h): Cell detachment, cell shrinkage and formation apoptotic bodies; IC50 [9]: 21 µM; percentage of viable cells, lower left quadrant (Annexin-V-/PI-) ([10]; 7.5 μM): 75.3%; percentage of early apoptotic cells, lower right quadrant (Annexin-V+/PI-) ([10]; 7.5 μM): 12.9%; percentage of viable cells, lower left quadrant (Annexin-V-/PI-) ([10]; 15 μM): 69.0%; percentage of early apoptotic cells, lower right quadrant (Annexin-V+/PI-) ([10]; 15 μM): 23.6%; percentage of viable cells, lower left quadrant (Annexin-V-/PI-) ([10]; 30 μM): 57.1%; percentage of early apoptotic cells, lower right quadrant (Annexin-V+/PI-) ([10]; 30 μM): 33.9%; mode of cell death ([10]; 7.5-30 μM): induced apoptosis; cell viability ([5]; 15–30 μM, p < 0.05): significant reduction; IC50 ([5]; MDA-MB-231, 24 h): 30 ± 0.13 µM; IC50 ([5]; MDA-MB-231, 48 h): 16 ± 2.01 µM; IC50 ([5]; MDA-MB-231, 72 h, listed as ampelopsin E): < 15 µM; cell cycle arrest [11]: increase in G2/M population
nepalensinol E	> 30	> 30	> 30	> 30	> 30	> 30	–	–

From PMC5017001, “Induction of apoptosis and G2/M arrest by ampelopsin E from Dryobalanops towards triple negative breast cancer cells, MDA-MB-231” (BMC Complementary and Alternative Medicine, 2016)
